We go through six molecules from patent publication US20070142319A1, “Anxiolytic treatment by inhibition of a polysialyltransferase” (The Burnham Institute, priority 2004, published 2007).

For test [1], the system named is cell surface membrane resialylation. The note with it: compounds that affect intracellular pools of CTP; cited from earlier work.
A further test relates to CA3 mossy fiber synapses. The test can be described thus: Mossy fiber-CA3 extracellular recordings of fEPSPs in hippocampal slices. On the set-up: species or system mouse. The source says:
Hippocampal slices from five- to six-month-old ST8Sia-II-deficient mice and their wild-type littermates were used for recordings. After halothane anesthesia, decapitation and removal of the brain, the hippocampi were cut with a VT 1000M vibratome (Leica, Nussloch, Germany) in slices 300 μm thick in ice-cold artificial cerebrospinal fluid (ACSF) containing (in mM): 250 sucrose, 25 NaHCO3, 25 glucose, 2.5 KCl, 1.25 NaH2PO4, 2 CaCl2, and 1.5 MgCl2, pH 7.3. […]
The LTP-inducing high-frequency stimulation (HFS) consisted of one train of stimuli applied at 100 Hz during 1 sec once (“weak” stimulation protocol) or repeated four times with an interval of 20 sec (“strong” stimulation protocol). […] To additionally confirm that the fEPSPs recorded were evoked by the stimulation of mossy fibers and not by the associational/commissural pathway, an agonist of type II metabotropic glutamate receptors (L-CCG1, 10 μM; Tocris), which is known to reduce synaptic transmission in CA3 mossy fiber synapses (Manzoni, et al. Neuropharmacology (1995) 34:965-71), was applied at the end of each experiment. […] Basal synaptic transmission was monitored at 0.033 Hz. The mean amplitude of fEPSPs recorded 0-10 min before HFS was taken as 100%. Post-tetanic potentiation (PTP) was calculated as the maximal increase in the amplitude of fEPSP after HFS. […]

The next test deals with cultured neurons. The note with it: acts as chain terminator after conversion to unnatural sialic acid derivative; cited from earlier work.

Regarding `Nc1ccn([C@@H]2O[C@H](CO)[C@@H](O)[C@@H]2O)c(=O)n1` [1-beta-D-arabinofuranosylcytosine], the “cell surface membrane resialylation” value in test [1] is “curtail”.
Take `O=C1C=CN([C@@H]2O[C@H](CO)[C@@H](O)[C@H]2O)C(=O)C1` [3-deazauridine]: the “cell surface membrane resialylation” value in test [1] is reported as “curtail”.
On to `NC(CCCP(=O)(O)O)C(=O)O` (stereo not drawn) [AP-5], for which, in the test with CA3 mossy fiber synapses (AP-5 50 μM, wild-type or ST8Sia-II deficient samples), the “effect on the amplitude of recorded fEPSPs” value is “did not affect the amplitude”.
Regarding `N[C@H](C(=O)O)[C@H]1C[C@@H]1C(=O)O` [L-CCG1], the “reduction of the amplitude of fEPSPs” value with CA3 mossy fiber synapses (L-CCG1 10 μM at end of experiment, similarly in both genotypes (wild-type and ST8Sia-II deficient)) stood at 80%.
In the case of `CCCC(=O)N[C@@H]1C(O)O[C@H](CO)[C@@H](O)[C@@H]1O` (stereo partly drawn) [N-butanoylmannosiamine], in the test on cultured neurons, the “PSA expression on cultured neurons” value is “inhibit PSA expression”.
On to `N[C@H](C(=O)O)[C@@H]1CC(Cl)=NO1` [acivicin], for which, in test [1], the “cell surface membrane resialylation” value is “curtail”.
